Results: patent US12037344B2, “NLRP3 modulators” (INNATE TUMOR IMMUNITY, INC., priority 2018, dated 2024)
pEC50: −log10 of the molar value. Like-named read-outs stand apart in the source and are kept apart here.

Columns and labels:
TLR7 = target: T1, TLR7 (Homo sapiens, UniProt Q9NYK1); assay: In vitro human TLR7 binding reporter assay (HEK-Blue, NF-kB/AP1-inducible SEAP); type: cell-based; conditions: read-out: TLR7 Agonist EC50
T1 construct: human HEK-Blue cells co-expressing a TLR7 or TLR8 gene
T1 sequence (Q9NYK1 27-1049): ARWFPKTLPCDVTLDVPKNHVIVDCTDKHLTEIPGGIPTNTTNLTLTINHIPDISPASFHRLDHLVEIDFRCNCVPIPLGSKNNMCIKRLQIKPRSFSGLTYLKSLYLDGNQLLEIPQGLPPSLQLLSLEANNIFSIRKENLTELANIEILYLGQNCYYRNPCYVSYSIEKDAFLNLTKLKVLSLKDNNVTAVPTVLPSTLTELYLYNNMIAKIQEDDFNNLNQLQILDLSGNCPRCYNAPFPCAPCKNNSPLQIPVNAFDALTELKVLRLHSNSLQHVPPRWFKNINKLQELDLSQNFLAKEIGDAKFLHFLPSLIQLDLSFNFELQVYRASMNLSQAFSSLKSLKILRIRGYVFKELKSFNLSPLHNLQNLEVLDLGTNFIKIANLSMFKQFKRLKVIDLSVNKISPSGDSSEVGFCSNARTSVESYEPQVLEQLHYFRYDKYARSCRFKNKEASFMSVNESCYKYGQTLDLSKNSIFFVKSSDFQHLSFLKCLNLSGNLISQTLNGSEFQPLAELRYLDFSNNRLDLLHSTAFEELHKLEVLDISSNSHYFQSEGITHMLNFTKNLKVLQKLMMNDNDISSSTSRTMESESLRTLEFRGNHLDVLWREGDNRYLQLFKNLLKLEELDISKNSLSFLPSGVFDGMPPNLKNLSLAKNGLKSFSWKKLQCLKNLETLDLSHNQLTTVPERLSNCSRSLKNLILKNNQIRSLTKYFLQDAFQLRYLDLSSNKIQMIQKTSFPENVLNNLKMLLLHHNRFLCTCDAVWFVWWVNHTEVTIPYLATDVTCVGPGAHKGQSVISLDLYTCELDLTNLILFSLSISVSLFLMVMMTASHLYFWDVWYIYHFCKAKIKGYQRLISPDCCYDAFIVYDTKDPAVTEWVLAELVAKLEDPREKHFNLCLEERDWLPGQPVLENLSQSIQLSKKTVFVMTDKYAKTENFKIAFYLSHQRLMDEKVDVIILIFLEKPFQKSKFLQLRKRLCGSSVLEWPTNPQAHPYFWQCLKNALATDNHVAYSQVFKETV
Method: (§1) In Vitro Human TLR7 and TLR8 Binding Reporter Assays
(§2) Logarithmically-growing human HEK-Blue cells co-expressing a TLR7 or TLR8 gene and a NF-kB/AP1-inducible SEAP (secreted embryonic alkaline phosphatase; Invivogen, San Diego, CA) reporter gene are added to individual wells of a 384-well plate (15,000 cells per 20 μL per well) and maintained for 24 h at 37° C., 5% CO2. Test compounds or DMSO are distributed to separate wells the next day using acoustic liquid handling technology (100 nL per well) and cells are subsequently incubated for 18 h at 37° C., 5% CO2. Cellular SEAP production is measured using an Envision plate reader instrument thirty minutes after adding freshly-made Quanti-Blue reagent (prepared by following manufacturer instructions; Invivogen, San Diego, CA) to the HEK-Blue TLR Nf-kB-SEAP cell reactions. All EC50 values (half-maximal effective concentration) are determined using proprietary data analysis software. Normalized EC50 value=absolute value determined by setting 100% Ymax using a reference standard RLU (relative light unit) values from cells treated with 50 μM of the reference standard.

TLR8 = target: T2, TLR8 (Homo sapiens, UniProt Q9NR97); assay: In vitro human TLR8 binding reporter assay (HEK-Blue, NF-kB/AP1-inducible SEAP); type: cell-based; conditions: read-out: TLR8 Agonist EC50
T2 construct: human HEK-Blue cells co-expressing a TLR7 or TLR8 gene
T2 sequence (Q9NR97 27-1041): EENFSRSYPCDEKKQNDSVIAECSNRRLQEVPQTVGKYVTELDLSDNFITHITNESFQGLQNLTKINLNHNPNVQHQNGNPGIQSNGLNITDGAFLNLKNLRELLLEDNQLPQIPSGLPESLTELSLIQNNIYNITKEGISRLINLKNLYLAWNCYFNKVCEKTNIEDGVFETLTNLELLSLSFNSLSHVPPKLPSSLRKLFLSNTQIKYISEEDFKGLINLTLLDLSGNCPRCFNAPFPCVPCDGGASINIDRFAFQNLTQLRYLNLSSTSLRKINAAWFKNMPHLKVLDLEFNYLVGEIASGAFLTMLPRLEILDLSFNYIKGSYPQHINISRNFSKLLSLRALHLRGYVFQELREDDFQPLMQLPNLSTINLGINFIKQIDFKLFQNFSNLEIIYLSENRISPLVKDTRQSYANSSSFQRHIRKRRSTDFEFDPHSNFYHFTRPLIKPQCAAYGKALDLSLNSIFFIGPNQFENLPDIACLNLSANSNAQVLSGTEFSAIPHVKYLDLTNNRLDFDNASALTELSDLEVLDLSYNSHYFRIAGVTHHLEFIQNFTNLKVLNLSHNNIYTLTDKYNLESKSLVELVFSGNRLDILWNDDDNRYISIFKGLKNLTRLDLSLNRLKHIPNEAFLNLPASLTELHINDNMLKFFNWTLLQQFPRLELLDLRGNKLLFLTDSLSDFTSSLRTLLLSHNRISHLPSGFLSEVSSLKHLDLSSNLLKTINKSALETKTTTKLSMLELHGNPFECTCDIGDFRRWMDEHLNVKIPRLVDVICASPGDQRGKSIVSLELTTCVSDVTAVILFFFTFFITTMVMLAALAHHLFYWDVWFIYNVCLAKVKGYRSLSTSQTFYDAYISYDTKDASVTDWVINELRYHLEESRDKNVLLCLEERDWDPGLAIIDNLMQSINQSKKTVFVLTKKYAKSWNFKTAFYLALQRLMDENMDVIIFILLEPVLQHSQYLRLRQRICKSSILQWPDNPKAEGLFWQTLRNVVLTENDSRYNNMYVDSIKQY
Method: as §1, §2

THP-1 cells = assay: Measurement of IL-1β production, hTRF protocol (second alternative procedure), THP-1 cells; type: cell-based, human
Method: Measurement of IL-1β Production—hTRF Protocol (Second Alternative Procedure)
Serial dilutions of compounds in DMSO were added to low volume 384 well plates at 100 nl/well using an ECHO 550 acoustic dispenser (Labcyte) to achieve final starting concentration of 10 μM in assay.
THP-1 cells in RPMI (Gibco, 11875) media with 10% FBS at a density of 1×10^6 cell/ml in a T175 flask were treated with a final concentration of phorbol 12-myristate 13-acetate (PMA) (Sigma, P1585) of 50 ng/ml overnight at 37° C. at 5% CO2 for differentiation. Cells were harvested the next day after rinsing well with dPBS using 0.5% trypsin. A cell solution was prepared of 1×10^6 cells/ml for 50,000 cells in 50 μl/well in RPMI media with 2% FBS. Cells were plated using a multichannel pipette onto the compound dilutions in Greiner, 384 well, black clear bottom tissue culture treated plates (781090). The plates were incubated in 37° C. incubator at 5% CO2 for 2 hours.
After the 2 hour incubation, the cell plates were spun in the centrifuge for 5 minutes at 1200 rpm. Using the Felix (CyBio), 8 μl of the supernatant was transferred to 384 well, low volume, white proxy plates. (Perkin Elmer, 6008230). A human IL1beta hTRF kit was used to analyze the supernatant (CISBIO, 62HIL1BPEG). The kit instructions were followed for preparing the IL1Beta standard curve and then the antibodies from the kit were diluted 1:40 rather than 1:20 as kit instructed. Once combined, the antibodies were added across the plates, 5 μl/well. The plates were sealed and incubated at 4° C. overnight. The plates were then read on the Perkin Elmer EnVision at 665/615 nm using the hTRF laser.

[1] = Homo sapiens, THP-1, IL-1β production, human, read-out: NLRP3 hILIB EC50
[2] = Homo sapiens, THP-1, IL-1β production, human cells, read-out: NLRP3 hILIB EC50

SMILES | pEC50 (TLR7; activity range class) | pEC50 (TLR8; activity range class) | pEC50 (THP-1 cells; [1]) | pEC50 (TLR7; activity range) | pEC50 (TLR8; activity range) | pEC50 (THP-1 cells; [2]) | pEC50 (THP-1 cells; IL-1β production, human, read-out: NLRP3 hILIB EC50) | pEC50 (THP-1 cells; Homo sapiens, THP-1, read-out: NLRP3 hILIB EC50)
Nc1nc2cc(-c3cc[nH]n3)ccc2c2cn(CCN3Cc4ccc(F)cc4C3=O)nc12 [Example 103, 2-{2-[4-amino-7-(1H-pyrazol-3-yl)-2H-pyrazolo[3,4-c]quinolin-2-yl]ethyl}-6-fluoro-2,3-dihydro-1H-isoindol-1-one] | < 4.00 | < 4.00 | 6.19 | – | – | – | – | –
N#C[C@H]1CCN(C(=O)Cn2cc3c(n2)c(N)nc2cc(-c4cc[nH]n4)ccc23)C1 [Example 540] | – | – | – | < 4.00 | < 4.00 | 5.50 | – | –
Nc1nc2cc(-c3cc[nH]n3)ccc2c2nn(CCCO)cc12 [Example 215] | < 4.00 | < 4.00 | 6.40 | – | – | – | – | –
Nc1nc2cc(-c3ccn[nH]3)ccc2c2cn(CC(F)F)nc12 [Example 192] | < 4.00 | < 4.00 | 7.05 | – | – | – | – | –
CC(=O)NCCn1cc2c(n1)c(N)nc1cc(-c3cccs3)ccc12 [Example 130] | < 4.00 | < 4.00 | 6.19 | – | – | – | – | –
Nc1nc2cc(-c3cc[nH]n3)ccc2c2nn(CC3CCOC3)cc12 (single isomer, unassigned) [Example 328] | < 4.00 | < 4.00 | – | – | – | – | 5.87 | –
N#CC1(C(=O)NCCn2cc3c(N)nc4cc(-c5cc[nH]n5)ccc4c3n2)CC1 [Example 291] | < 4.00 | < 4.00 | 5.33 | – | – | – | – | –
COC(C)(C)Cn1cc2c(N)nc3cc(-c4cc[nH]n4)ccc3c2n1 [Example 322] | < 4.00 | < 4.00 | 6.08 | – | – | – | – | –
CN(C)CCn1cc2c(N)nc3cc(-c4ccn[nH]4)ccc3c2n1 [Example 261] | < 4.00 | < 4.00 | 5.89 | – | – | – | – | –
CC(C)(C(=O)NCc1ccccn1)n1cc2c(N)nc3cc(-c4cc[nH]n4)ccc3c2n1 [Example 525] | – | – | – | < 4.00 | < 4.00 | 4.69 | – | –
Nc1nc2cc(-c3cc[nH]n3)ccc2c2c1cnn2CCc1ccccn1 [Example 227] | < 4.00 | < 4.00 | 5.74 | – | – | – | – | –
CC(C)(C(=O)N1CCCC1)n1cc2c(N)nc3cc(-c4cc[nH]n4)ccc3c2n1 [Example 509] | – | – | – | < 4.00 | < 4.00 | 5.16 | – | –
Nc1nc2cc(-c3cc[nH]n3)ccc2c2cn(CCNCc3ccccc3)nc12 [Example 108] | 4.00 to 4.70 | 4.00 to 4.70 | 6.04 | – | – | – | – | –
Cc1nc(C(=O)NCCn2cc3c(N)nc4cc(-c5cc[nH]n5)ccc4c3n2)co1 [Example 198] | < 4.00 | < 4.00 | 6.96 | – | – | – | – | –
CC(=O)N[C@@H](CO)Cn1cc2c(N)nc3cc(-c4cc[nH]n4)ccc3c2n1 [Example 292] | < 4.00 | < 4.00 | 6.05 | – | – | – | – | –
Nc1nc2cc(-c3cc[nH]n3)ccc2c2nn(CCNC(=O)c3csc(Cl)n3)cc12 [Example 151, N-{2-[4-amino-7-(1H-pyrazol-3-yl)-2H-pyrazolo[4,3-c]quinolin-2-yl]ethyl}-2-chloro-1,3-thiazole-4-carboxamide] | < 4.00 | < 4.00 | 7.22 | – | – | – | – | –
Nc1nc2cc(-c3cc[nH]n3)ccc2c2cn(CCNC(=O)c3cc(Cl)ccn3)nc12 [Example 61] | 4.00 to 4.70 | < 4.00 | 6.92 | – | – | – | – | –
COCCn1ncc2c(N)nc3cc(-c4cc[nH]n4)ccc3c21 [Example 208, 1-(2-methoxyethyl)-7-(1H-pyrazol-3-yl)-1H-pyrazolo[4,3-c]quinolin-4-amine] | < 4.00 | < 4.00 | 6.31 | – | – | – | – | –
Nc1nc2cc(-c3cc[nH]n3)ccc2c2nn(CCC(=O)NCc3ccccn3)cc12 [Example 507] | – | – | – | < 4.00 | < 4.00 | 4.76 | – | –
Nc1nc2cc(-c3cc[nH]n3)ccc2c2cn(CCNC(=O)Oc3ccccc3)nc12 [Example 117, phenyl N-{2-[4-amino-7-(1H-pyrazol-3-yl)-2H-pyrazolo[3,4-c]quinolin-2-yl]ethyl}carbamate] | < 4.00 | 4.00 to 4.70 | – | – | – | – | – | 6.24
Nc1nc2cc(-c3cc[nH]n3)ccc2c2nn(C[C@H](O)CO)cc12 [Example 364] | < 4.00 | < 4.00 | 5.83 | – | – | – | – | –
Nc1nc2cc(-c3cc[nH]n3)ccc2c2nn(CCC(=O)N3CCOCC3)cc12 [Example 501] | – | – | – | < 4.00 | < 4.00 | 6.14 | – | –
Nc1nc2cc(-c3cc[nH]n3)ccc2c2nn([C@@H]3CC[C@H](O)C3)cc12 (relative stereo) [Example 210, cis-3-(4-amino-7-(1H-pyrazol-3-yl)-2H-pyrazolo[4,3-c]quinolin-2-yl)cyclopentan-1-ol] | < 4.00 | < 4.00 | 6.48 | – | – | – | – | –
